According to paper PMC3118939 (Chemical research in toxicology, 2011):
Like-named read-outs stand apart in the source and are kept apart here.

Assays:
[1] = system: hypoxanthine phosphoribosyl transferase (hprt) gene of Chinese hamster ovary cells (CHO); type: cell-based; details: estimated from ref 53, 69-71
human hepatocytes [2] = details: cited from earlier work; for dose metabolized in human hepatocyte preparations: 10 μM dose; for dose that underwent metabolism: human hepatocytes, 10 μM, after 24 h incubation, previous studies
P450 1A2 = details: human versus rat P450 1A2; cited from earlier work
rat hepatocytes = details: cited from earlier work; for extent of metabolism in rat hepatocytes: even after 24 h; for N-oxidation products as share of the dose: rat hepatocytes
human hepatocytes [3] = assay: 4-ABP- and HAA-DNA adduct formation in freshly cultured human hepatocytes; details: carcinogen 10 μM, 24 h incubation
human hepatocytes [4] = assay: 4-ABP and HAA biotransformation in human hepatocytes; type: in vitro ADME; details: PhIP 10 μM in human hepatocytes
CDF1 mice = details: cited from earlier work
[5] = system: colon of C57BL/6 mice (Big Blue mouse); details: cited from earlier work
colon of C57BL/6 mice = details: cited from earlier work
rat = rat model; cited from earlier work
rodents = details: cited from earlier work

SMILES | DNA adduct formation, Adducts per 10^7 Bases (human hepatocytes [3]; human hepatocytes donor HH A) [Adducts per 10^7 Bases] | DNA adduct formation, Adducts per 10^7 Bases (human hepatocytes [3]; human hepatocytes donor HH B) [Adducts per 10^7 Bases] | DNA adduct formation, Adducts per 10^7 Bases (human hepatocytes [3]; human hepatocytes donor HH C) [Adducts per 10^7 Bases] | DNA adduct formation, Adducts per 10^7 Bases (human hepatocytes [3]; human hepatocytes donor HH D) [Adducts per 10^7 Bases] | DNA adduct formation, Adducts per 10^7 Bases (human hepatocytes [3]; human hepatocytes donor HH F) [Adducts per 10^7 Bases] | DNA adduct formation, Adducts per 10^7 Bases (human hepatocytes [3]; human hepatocytes donor HH G) [Adducts per 10^7 Bases] | DNA adduct formation, Adducts per 10^7 Bases (human hepatocytes [3]; human hepatocytes donor HH H) [Adducts per 10^7 Bases] | also measured
Cc1cnc2ccc3c(nc(N)n3C)c2n1 [MeIQx, 2-amino-3,8-dimethylimidazo[4,5-f]quinoxaline] |  |  |  |  |  |  |  | hprt mutants induced by one dG-C8 adduct per 10^7 bases in the CHO genome ([1]; dose concentration 1.5 μM): about 1.5 hprt mutants per one million c; dose metabolized in human hepatocyte preparations (human hepatocytes [2]): > 75%; dose that underwent metabolism (human hepatocytes [2]): up to 97%; catalytic efficiency of N-oxidation, human P450 1A2 superior to rat P450 1A2 (P450 1A2): 11 fold; extent of metabolism in rat hepatocytes (rat hepatocytes): poorly metabolized; N-oxidation products as share of the dose (rat hepatocytes): less than 2%
Cc1cnc2ccc3c(nc(Nc4nc5c(=O)[nH]c(N)nc5n4[C@H]4C[C@H](O)[C@@H](CO)O4)n3C)c2n1 [dG-C8-MeIQx, N-(deoxyguanosin-8-yl)-MeIQx] | 3.4 ± 0.3 | 12.4 ± 0.6 | 13.9 ± 0.2 | 12.2 ± 3.5 | 19.0 ± 1.9 | 16.1 ± 1.0 | 5.1 ± 0.1 | 
Cn1c(=NO)n([C@@H]2O[C@H](C(=O)O)[C@@H](O)[C@H](O)[C@H]2O)c2ncc(-c3ccccc3)cc21 [HONH-N3-PhIP] |  |  |  |  |  |  |  | level of metabolite formed, lower than HON-PhIP-N^2-Gl (human hepatocytes [4]): ~ 10 fold
Nc1ccc2c(n1)[nH]c1ccccc12 [AαC, 2-amino-9H-pyrido[2,3-b]indole] |  |  |  |  |  |  |  | hprt mutants induced by one dG-C8 adduct per 10^7 bases in the CHO genome ([1]; dose concentration 1.5 μM): ~2.5 hprt mutants per one million c; tumor induction (CDF1 mice): causes liver and blood vessel tumors; lacI transgene mutagenicity [5]: potent lacI transgene mutagen; aberrant crypt foci (colon of C57BL/6 mice): induces aberrant crypt foci; hepatocarcinogenicity (rat): not a hepatocarcinogen
Nc1nc2c(nc(Nc3ccc4c(n3)[nH]c3ccccc34)n2[C@H]2C[C@H](O)[C@@H](CO)O2)c(=O)[nH]1 [dG-C8-AαC, N-(Deoxyguanosin-8-yl)-AαC] |  | 32.5 ± 1.8 | 44.4 ± 5.6 | 109 ± 6.4 | 72.0 ± 5.9 | 82.0 ± 15.4 | 31.4 ± 3.3 | 
Cn1c(Nc2nc3c(=O)[nH]c(N)nc3n2[C@H]2C[C@H](O)[C@@H](CO)O2)nc2c3cccnc3ccc21 [dG-C8-IQ, N-(deoxyguanosin-8-yl)-IQ] | 9.8 ± 1.1 | 10.3 ± 0.6 | 18.3 ± 0.8 | 26.2 ± 1.9 |  | 13.5 ± 1.5 | 7.0 ± 2.2 | 
Nc1ccc(-c2ccccc2)cc1 [4-ABP, 4-aminobiphenyl] |  |  |  |  |  |  |  | hprt mutants induced by one dG-C8 adduct per 10^7 bases in the CHO genome ([1]; dose concentration 2 μM): ~ 0.7 hprt mutants per one million c; cancer induction (rodents): induces cancer of the urinary bladder, liver, and mammary gland
Cn1c(Nc2nc3c(=O)[nH]c(N)nc3n2[C@H]2C[C@H](O)[C@@H](CO)O2)nc2ncc(-c3ccccc3)cc21 [dG-C8-PhIP, N-(deoxyguanosin-8-yl)-PhIP] | 13.4 ± 1.7 | 22.0 | 7.5 ± 1.6 | 7.7 ± 1.0 | 14.0 ± 0.6 | 30.6 ± 2.4 | 6.0 ± 1.0 | 
Nc1nc2c(nc(Nc3ccc(-c4ccccc4)cc3)n2[C@H]2C[C@H](O)[C@@H](CO)O2)c(=O)[nH]1 [dG-C8-4-ABP, N-(Deoxyguanosin-8-yl)-4-aminobiphenyl] |  | 150 | 38.8 ± 4.8 | 100 | 49.0 ± 1.7 | 87.9 ± 8.3 | 70.0 ± 5.8 | 
Cn1c(N)nc2ncc(-c3ccccc3)cc21 [PhIP, 2-amino-1-methyl-6-phenylimidazo[4,5-b]pyridine] |  |  |  |  |  |  |  | hprt mutants induced by one dG-C8 adduct per 10^7 bases in the CHO genome ([1]; dose concentration 1.2 μM): ~2.8 hprt mutants per one million c; dose metabolized in human hepatocyte preparations (human hepatocytes [2]): > 75%; dose that underwent metabolism (human hepatocytes [2]): up to 97%; catalytic efficiency of N-oxidation, human P450 1A2 superior to rat P450 1A2 (P450 1A2): 19 fold; extent of metabolism in rat hepatocytes (rat hepatocytes): poorly metabolized; N-oxidation products as share of the dose (rat hepatocytes): less than 2%
